Test results taken from ChEMBL document CHEMBL3124916, “On the histone lysine methyltransferase activity of fungal metabolite chaetocin” (J Med Chem, 2013).
Active and inactive are the calls of the source. The rule behind the calls is not given here.

How the values were obtained:
[1] = target: T1, Histone-lysine N-methyltransferase EHMT2 (Homo sapiens) (UniProt Q96KQ7); experiment: Inhibition of N-terminal GST-tagged recombinant human Histone-lysine N-methyltransferase G9a using S-(5'-adenosyl)-L-methionine chloride as substrate assessed as nonspecific denaturation of enzyme at 0.05 to 25 uM preincubated for 30 mins in presence of urea and DTT
T1 sequence (whole entry): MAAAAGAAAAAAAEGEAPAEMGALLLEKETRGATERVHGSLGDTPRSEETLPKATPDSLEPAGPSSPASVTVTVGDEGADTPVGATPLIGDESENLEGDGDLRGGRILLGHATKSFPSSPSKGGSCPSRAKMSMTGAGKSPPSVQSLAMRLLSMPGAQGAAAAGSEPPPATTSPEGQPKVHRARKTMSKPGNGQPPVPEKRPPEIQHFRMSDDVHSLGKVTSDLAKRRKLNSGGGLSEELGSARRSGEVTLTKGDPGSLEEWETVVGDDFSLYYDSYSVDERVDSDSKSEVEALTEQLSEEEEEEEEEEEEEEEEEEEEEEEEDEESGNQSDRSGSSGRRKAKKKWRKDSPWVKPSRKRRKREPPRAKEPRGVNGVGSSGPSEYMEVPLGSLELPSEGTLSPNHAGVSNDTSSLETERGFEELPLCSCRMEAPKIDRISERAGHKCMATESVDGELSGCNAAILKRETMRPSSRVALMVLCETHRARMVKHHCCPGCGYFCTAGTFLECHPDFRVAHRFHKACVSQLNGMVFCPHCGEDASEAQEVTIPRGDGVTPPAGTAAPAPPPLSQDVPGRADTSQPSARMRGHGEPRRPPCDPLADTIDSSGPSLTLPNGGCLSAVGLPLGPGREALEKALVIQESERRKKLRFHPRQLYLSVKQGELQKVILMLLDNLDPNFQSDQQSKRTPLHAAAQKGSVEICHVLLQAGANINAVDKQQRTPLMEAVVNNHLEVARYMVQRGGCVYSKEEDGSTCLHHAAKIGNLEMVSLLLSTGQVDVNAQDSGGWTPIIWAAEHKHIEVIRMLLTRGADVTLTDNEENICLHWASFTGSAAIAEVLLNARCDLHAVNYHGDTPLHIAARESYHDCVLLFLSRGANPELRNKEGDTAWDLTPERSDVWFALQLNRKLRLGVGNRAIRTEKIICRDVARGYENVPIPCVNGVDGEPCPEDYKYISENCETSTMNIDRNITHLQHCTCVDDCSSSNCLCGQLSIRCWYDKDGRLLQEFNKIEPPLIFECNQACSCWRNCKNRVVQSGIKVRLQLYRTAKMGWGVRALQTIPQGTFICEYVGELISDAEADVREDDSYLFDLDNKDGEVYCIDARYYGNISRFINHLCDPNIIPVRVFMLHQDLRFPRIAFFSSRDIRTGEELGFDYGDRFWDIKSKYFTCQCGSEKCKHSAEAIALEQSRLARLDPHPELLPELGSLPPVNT

[2] = target: T1, Histone-lysine N-methyltransferase EHMT2 (Homo sapiens); experiment: Inhibition of N-terminal GST-tagged recombinant human Histone-lysine N-methyltransferase G9a using S-(5'-adenosyl)-L-methionine chloride as substrate assessed as residual activity at 25 uM after 30 mins; values are per cent of control
[3] = target: T2, Histone-lysine N-methyltransferase EHMT2 (Homo sapiens, UniProt Q96KQ7); experiment: Inhibition of N-terminal GST-tagged recombinant human Histone-lysine N-methyltransferase G9a using S-(5'-adenosyl)-L-methionine chloride as substrate after 30 mins
T2 sequence (Q96KQ7 whole entry): T1 sequence (whole entry)

[4] = Induction of H2O2 generation in HBSS/Phenol Red buffer at 10 to 100 uM preincubated for 15 mins by HRP assay in presence of DTT; format: physicochemical; conditions: 0.25 h
[5] = Inhibition of Neurospora crassa Histone H3-K9 methyltransferase dim-5
[6] = target: T1, Histone-lysine N-methyltransferase EHMT2 (Homo sapiens); experiment: Reversible inhibition of N-terminal GST-tagged recombinant human Histone-lysine N-methyltransferase G9a using S-(5'-adenosyl)-L-methionine chloride as substrate assessed as enzyme recovery at 10 fold IC50 preincubated for 30 mins followed by 100 fold dilution in presence of DTT
[7] = target: T2, Histone-lysine N-methyltransferase EHMT2
Description: Competitive inhibition of N-terminal GST-tagged recombinant human Histone-lysine N-methyltransferase G9a using S-(5'-adenosyl)-L-methionine chloride as substrate preincubated for 30 mins followed by substrate addition measured after 30 mins

| Structure (SMILES) | inhibition [1] | residual activity [2] | IC50 [3] | Activity [4] | IC50 [5] | inhibition [6] | IC50 [7] |
| --- | --- | --- | --- | --- | --- | --- | --- |
| Nc1ncnc2c1ncn2[C@@H]1O[C@H](CSCC[C@H](N)C(=O)O)[C@@H](O)[C@H]1O | inactive | – | – | – | – | – | – |
| CN1C(=O)[C@@]23C[C@]4([C@]56C[C@@]78S[C@@](CO)(C(=O)N7[C@H]5Nc5ccccc56)N(C)C8=O)c5ccccc5N[C@@H]4N2C(=O)[C@]1(CO)S3 | – | 36% | 10.6 µM | – | – | – | – |
| CN1C(=O)[C@@]23C[C@]4([C@]56C[C@@]78SS[C@@](CO)(C(=O)N7[C@H]5Nc5ccccc56)N(C)C8=O)c5ccccc5N[C@@H]4N2C(=O)[C@]1(CO)SS3 [CHAETOCIN] | Active | 8% | 2.6 µM | Not Active | 3 µM | Active | – |
| O=C1[C@@H]2SS[C@@H](C(=O)N2Cc2ccccc2)N1Cc1ccccc1 | – | 19% | 4.9 µM | – | – | Active | 5.11 µM |
